Paper doi:10.1101/2021.11.05.467463v1 (biorxiv, 2021)
Values after ≈ are worked out from the molar mass of the structure shown.

Legend:
[1] = biological target: T1, PfPKG (Plasmodium falciparum, UniProt Q8I719); assay: in vitro PfPKG enzyme inhibition assay; assay type: biochemical; conditions: […] compound
[2] = biological target: CYP3A4 (Homo sapiens, UniProt P08684); assay: in vitro CYP3A4 inhibition; assay type: biochemical
[3] = mouse, microsomes
[4] = physchem; conditions: water
[5] = biological target: T1, PfPKG; assay: in vitro PfPKG enzyme inhibition assay; assay type: biochemical; conditions: […] compound; remark: listed apart in the source
[6] = biological target: T1, PfPKG; assay: in vitro PfPKG enzyme inhibition assay; assay type: biochemical

T1 sequence (Q8I719 whole entry): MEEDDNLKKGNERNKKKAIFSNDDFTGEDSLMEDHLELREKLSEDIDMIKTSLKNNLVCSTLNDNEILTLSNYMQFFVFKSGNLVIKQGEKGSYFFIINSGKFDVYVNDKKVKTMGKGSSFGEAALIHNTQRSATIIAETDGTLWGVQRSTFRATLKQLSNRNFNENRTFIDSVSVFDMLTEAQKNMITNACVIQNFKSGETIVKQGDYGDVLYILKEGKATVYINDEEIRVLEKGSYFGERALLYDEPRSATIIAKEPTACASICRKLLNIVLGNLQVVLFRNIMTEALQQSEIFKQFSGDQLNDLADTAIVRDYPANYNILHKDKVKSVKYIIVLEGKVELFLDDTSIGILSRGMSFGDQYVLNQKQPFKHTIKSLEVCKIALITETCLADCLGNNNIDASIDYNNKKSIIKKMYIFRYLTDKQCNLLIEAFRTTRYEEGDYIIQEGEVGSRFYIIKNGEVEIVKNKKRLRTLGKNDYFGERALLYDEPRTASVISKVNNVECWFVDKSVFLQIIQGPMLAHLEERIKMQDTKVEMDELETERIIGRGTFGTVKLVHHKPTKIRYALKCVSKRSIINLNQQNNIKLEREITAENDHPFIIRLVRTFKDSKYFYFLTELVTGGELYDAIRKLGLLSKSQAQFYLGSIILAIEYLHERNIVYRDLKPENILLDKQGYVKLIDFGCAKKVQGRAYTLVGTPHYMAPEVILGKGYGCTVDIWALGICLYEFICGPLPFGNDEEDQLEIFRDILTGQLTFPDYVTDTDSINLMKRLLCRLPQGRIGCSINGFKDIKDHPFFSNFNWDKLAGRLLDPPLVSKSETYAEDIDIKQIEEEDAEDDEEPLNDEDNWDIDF
CYP3A4, sequence (P08684 2-503): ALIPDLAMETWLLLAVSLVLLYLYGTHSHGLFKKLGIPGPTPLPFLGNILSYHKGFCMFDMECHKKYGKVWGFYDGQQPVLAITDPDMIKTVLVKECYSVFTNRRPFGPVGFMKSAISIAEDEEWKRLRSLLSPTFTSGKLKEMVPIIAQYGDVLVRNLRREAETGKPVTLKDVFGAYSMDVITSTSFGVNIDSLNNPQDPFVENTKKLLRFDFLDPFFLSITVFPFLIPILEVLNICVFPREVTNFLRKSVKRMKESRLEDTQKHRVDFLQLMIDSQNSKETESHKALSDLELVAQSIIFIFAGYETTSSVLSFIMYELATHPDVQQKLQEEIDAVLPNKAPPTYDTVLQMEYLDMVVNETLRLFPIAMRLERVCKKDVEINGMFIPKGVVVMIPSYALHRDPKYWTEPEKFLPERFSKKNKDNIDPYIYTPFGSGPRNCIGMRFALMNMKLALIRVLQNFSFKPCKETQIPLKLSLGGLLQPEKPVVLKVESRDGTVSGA

**Q.** With `Cc1cn(-c2ccnc(NC3CCCN(C(=O)c4nccs4)C3)n2)c(-c2ccccc2)n1` (racemic) [10d] as the compound, how does the “% inh @ 1 μM” value [1] read?
**A.** 4%

**Q.** With `Cc1cn(-c2ccnc(NCC3CCCN3C(=O)c3nccs3)n2)c(-c2ccccc2)n1` (racemic) [10f] as the compound, how does the “% inh @ 1 μM” value [1] read?
**A.** 3%

**Q.** Which IC50 [2] does the source give for `Cc1cn(-c2ccnc(N[C@@H]3CCN(C(=O)c4nccs4)C3)n2)c(-c2ccccc2)n1` [10a] here?
**A.** 940 nM

**Q.** For `Cc1cn(-c2ccnc(N[C@H]3CCN(C(=O)c4nccs4)C3)n2)c(-c2ccccc2)n1` [10c], which “% inh @ 1 μM” value [1] is on record?
**A.** 4%

**Q.** For `Cc1cn(-c2ccnc(NC3CCN(C(=O)c4nccs4)CC3)n2)c(-c2ccccc2)n1` [10e], which “% inh @ 1 μM” value [1] is on record?
**A.** 5%

**Q.** What does the source list for `O=C(c1nccs1)N1CC[C@@H](Nc2nccc(-n3cc(C4CC4)nc3-c3ccccc3)n2)C1` [14a]?
**A.** MLM t1/2 [3]: < 2 min; solubility [4]: 92 µM (≈ 42.1 µg/mL)

**Q.** Which results are given for `O=C(c1nccs1)N1CC[C@@H](Nc2nccc(-n3cc(C4CC4)nc3-c3cccc(Cl)c3)n2)C1` [14b]?
**A.** MLM t1/2 [3]: <2 min; solubility [4]: 28 µM (≈ 13.8 µg/mL)

**Q.** For `Cc1cn(-c2ccnc(N[C@@H]3CCN(C(=O)c4nccs4)C3)n2)c(-c2ccccc2Cl)n1` [18b], which “% inhib @ 1 μM” value [5] is on record?
**A.** 47%

**Q.** Which IC50 [6] does the source give for `CN1CCC(c2cc(-c3ccc(F)cc3)c(-c3ccncc3)[nH]2)CC1` [compound 5, pyrrole 5] here?
**A.** 22 nM
